Literature values as cited in PMC7330163 (Pharmacology Research & Perspectives, 2020).

Tests used:
[1] = tested on: hepatic OATP transporters; settings: accumulates in the liver; cited from earlier work
CYP3A4 = settings: man; cited from earlier work

COc1ccccc1Oc1c(NS(=O)(=O)c2ccc(C(C)(C)C)cc2)nc(-c2ncccn2)nc1OCCO [bosentan]
substrate of OATP [1]: is an OATP substrate | CYP3A4 induction in clinical use (CYP3A4): moderate CYP3A4 inducer
